The target of this assay is T1, DPPIV obtained from swine kidney (Sus scrofa, UniProt P22411).
T1 construct: DPPIV obtained from swine kidney; from tissue; host or cells: swine kidney
Description: Assay for the DPPIV-inhibiting activity. In kind it is biochemical. The settings on record: DPPIV 10 mU/mL, Gly-Pro-p-nitroanilide 0.33 mM, absorbance 405 nm. As for the experimental part: DPPIV obtained from swine kidney was dissolved in a reaction buffer (50 mM Tris-HCl (pH 7.4)/0.1% BSA) at a fmal concentration of 10 mU/mL. A 110 μL aliquot of this enzyme solution was added to the reaction system, and then 15 μL of an agent was added. The reaction solution was incubated at room temperature for 20 minutes. 25 μL of a solution containing 2 mM Gly-Pro-p-nitroanilide was added to the reaction solution (at the final concentration of 0.33 mM) to start the enzyme reaction. The reaction time was 20 minutes. 25 μL of 1N phosphate solution was added to stop the reaction. […] The degree of inhibition to the enzyme reaction was determined, and IC50 was computed based on the absorbance.

We go through 34 molecules from patent publication US20060094722A1 (Eisai Co., Ltd., priority 2002, published 2006).

Structures can show the parent of a compound that is named as a salt. Where two headings read alike, the source gives them in different places.

T1 sequence (P22411 whole entry): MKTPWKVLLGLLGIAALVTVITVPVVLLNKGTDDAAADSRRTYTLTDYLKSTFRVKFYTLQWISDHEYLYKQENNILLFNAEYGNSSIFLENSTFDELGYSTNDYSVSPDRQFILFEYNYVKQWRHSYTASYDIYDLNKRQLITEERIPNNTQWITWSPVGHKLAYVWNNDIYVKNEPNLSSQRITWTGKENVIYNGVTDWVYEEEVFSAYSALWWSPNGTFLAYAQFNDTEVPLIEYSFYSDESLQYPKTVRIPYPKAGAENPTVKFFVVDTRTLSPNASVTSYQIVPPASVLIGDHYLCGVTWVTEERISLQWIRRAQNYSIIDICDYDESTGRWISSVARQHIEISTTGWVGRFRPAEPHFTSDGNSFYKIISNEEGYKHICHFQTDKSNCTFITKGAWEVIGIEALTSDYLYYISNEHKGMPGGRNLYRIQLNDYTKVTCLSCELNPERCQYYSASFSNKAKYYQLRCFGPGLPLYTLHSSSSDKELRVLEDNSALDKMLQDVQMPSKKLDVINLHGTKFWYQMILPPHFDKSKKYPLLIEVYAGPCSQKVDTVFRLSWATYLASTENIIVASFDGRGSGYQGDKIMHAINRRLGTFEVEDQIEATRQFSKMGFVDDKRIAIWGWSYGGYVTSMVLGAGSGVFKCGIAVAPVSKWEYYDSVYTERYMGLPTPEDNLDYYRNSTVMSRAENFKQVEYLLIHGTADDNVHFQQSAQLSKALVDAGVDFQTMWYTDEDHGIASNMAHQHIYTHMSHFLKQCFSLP

On to `CC#CCn1c(N2CCNCC2)nc2nc(OC(C(=O)OC)c3ccccc3)n(C)c(=O)c21` (stereo not shown) [Example 4, trifluoroacetate], for which the IC50 (read-out: IC50) was determined as 211 nM.

`CC#CCn1c(N2CCNCC2)nc2nc(OC(C)C(=O)OCC)n(C)c(=O)c21` (stereo not shown) [Example 9, Ethyl 2-[7-(2-butynyl)-1-methyl-6-oxo-8-(piperazin-1-yl)-6,7-dihydro-1H-purin-2-yloxy]propionate]: the IC50 (read-out: IC50) was determined as 141 nM. In the case of `CC#CCn1c(N2CCNCC2)nc2nc(OCC)n(C)c(=O)c21` [Example 12, 7-(2-Butynyl)-2-ethoxy-1-methyl-8-(piperazin-1-yl)-1,7-dihydropurin-6-one], the IC50 (read-out: IC50) was found to be 183 nM. For the molecule `CC#CCn1c(N2CCNCC2)nc2nc(OCC(=O)OCC)n(C)c(=O)c21` [Example 13, Ethyl[7-(2-butynyl)-1-methyl-6-oxo-8-(piperazin-1-yl)-6,7-dihydro-1H-purin-2-yloxy]acetate], the IC50 (read-out: IC50) is 125 nM. Same read-out and setting: then `CC#CCn1c(N2CCNCC2)nc2nc(OC3(C(=O)OCC)CC3)n(C)c(=O)c21` [Example 16], with 272 nM.

Turning to `CC#CCn1c(N2CCNCC2)nc2nc(SCC(=O)O)n(C)c(=O)c21` [Example 79, [7-(2-Butynyl)-1-methyl-6-oxo-8-(piperazin-1-yl)-6,7-dihydro-1H-purin-2-ylsulfanyl]acetic acid trifluoroacetate], where the note is “read-out: IC50”, the IC50 came out at 35.7 nM. With `CC#CCn1c(N2CCNCC2)nc2nc(C(N)=O)n(C)c(=O)c21` [Example 83, 7-(2-Butynyl)-1-methyl-6-oxo-8-(piperazin-1-yl)-6,7-dihydro-1H-purine-2-carboxamide], under “read-out: IC50”, the IC50 came out at 27.4 nM. Take `CC#CCn1c(N2CCNCC2)nc2cnn(C)c(=O)c21` [Example 115, 3-(2-Butynyl)-5-methyl-2-(piperazin-1-yl)-3,5-dihydroimidazo[4,5-d]pyridazin-4-one trifluoroacetate]: the IC50 (read-out: IC50) came out at 185 nM. Still for that read-out and setting: the figure for `CC#CCn1c(N2CCNCC2)nc2nc(SCCC)n(C)c(=O)c21` [Example 129, 7-(2-Butynyl)-1-methyl-8-(piperazin-1-yl)-2-propylsulfanyl-1,7-dihydropurin-6-one trifluoroacetate] is 115 nM; for `CC#CCn1c(N2CCNCC2)nc2nc(Oc3ccccc3C(N)=O)n(Cc3ccc(C#N)cc3)c(=O)c21` [Example 235, 2-[7-(2-Butynyl)-1-(4-cyanobenzyl-6-oxo-8-(piperazin-1-yl)-6,7-dihydro-1H-purin-2-yloxy]benzamide trifluoroacetate] it is 1.44 nM.

`O=c1c2c(cnn1CCc1ccccc1)nc(N1CCNCC1)n2Cc1ccccc1` [Example 311, 3-Benzyl-5-(2-phenylethyl)-2-(piperazin-1-yl)-3,5-dihydroimidazo[4,5-d]pyridazin-4-one trifluoroacetate]: half-maximal inhibition (IC50 (nM)) (IC50) required 77.5 nM. On to `CC#CCn1c(N2CCNCC2)nc2ccn(CC(=O)c3ccccc3)c(=O)c21` [Example 341, 3-(2-Butynyl)-5-(2-oxo-2-phenylethyl)-2-(piperazin-1-yl)-3,5-dihydroimidazo[4,5-c]pyridin-4-one trifluoroacetate], for which, where the note is “read-out: IC50”, the IC50 is 7.32 nM. Take `CC#CCn1c(N2CCNCC2)nc2c1c(=O)[nH]c(=O)n2C` [Example 354, 7-(2-Butynyl)-3-methyl-8-(piperazin-1-yl)-3,7-dihydropurine-2,6-dione]: the IC50 (IC50 (nM)) stood at 285 nM.

On to `CC#CCn1c(N2CCNCC2)nc2c1c(=O)n(CC(=O)OC)c(=O)n2C` [Example 355, Methyl[7-(2-butynyl)-3-methyl-2,6-dioxo-8-(piperazin-1-yl)-2,3,6,7-tetrahydropurin-1-yl]acetate trifluoroacetate], for which, under “read-out: IC50”, the IC50 stood at 147 nM. `C#CCn1c(=O)c2c(nc(N3CCNCC3)n2CC#CC)n(C)c1=O` [Example 357, 7-(2-Butynyl)-3-methyl-8-(piperazin-1-yl)-1-(2-propynyl)-3,7-dihydropurine-2,6-dione trifluoroacetate] yielded an IC50 (IC50 (nM)) of 323 nM. Still for that read-out and setting: the figure for `CC#CCn1c(=O)c2c(nc(N3CCNCC3)n2CC#CC)n(C)c1=O` [Example 358, 1,7-bis(2-Butynyl)-3-methyl-8-(piperazin-1-yl)-3,7-dihydropurine-2,6-dione trifluoroacetate] is 357 nM; for `CC#CCn1c(N2CCNCC2)nc2c1c(=O)n(CC#N)c(=O)n2C` [Example 359, [7-(2-Butynyl)-3-methyl-2,6-dioxo-8-(piperazin-1-yl)-2,3,6,7-tetrahydropurin-1-yl]acetonitrile trifluoroacetate] it is 353 nM. As for `CC#CCn1c(N2CCNCC2)nc2c1c(=O)n(CC(=O)c1ccccc1)c(=O)n2C` [Example 361, 7-(2-Butynyl)-3-methyl-1-[(2-oxo-2-phenyl)ethyl]-8-(piperazin-1-yl)-3,7-dihydropurine-2,6-dione trifluoroacetate], the IC50 (read-out: IC50) came out at 0.654 nM. Molecule `CC#CCn1c(N2CCNCC2)nc2c1c(=O)n(CCc1ccccc1)c(=O)n2C` [Example 367, 7-(2-Butynyl)-3-methyl-1-(2-phenylethyl)-8-(piperazin-1-yl)-3,7-dihydropurine-2,6-dione trifluoroacetate] gave an IC50 (IC50 (nM)) of 4.56 nM. On to `Cn1c(=O)n(CCc2ccccc2)c(=O)c2c1nc(N1CCNCC1)n2-c1ccccc1Cl` [Example 377, 7-(2-Chlorophenyl)-3-methyl-1-(2-phenethyl)-8-(piperazin-1-yl)-3,7-dihydropurine-2,6-dione trifluoroacetate], for which the IC50 (read-out: IC50) stood at 8.77 nM. Turning to `CC#CCn1c(N2CCNCC2)nc2c1c(=O)n(C)c(=O)n2CC` [Example 396, 7-(2-Butynyl)-3-ethyl-1-methyl-8-(piperazin-1-yl)-3,7-dihydropurine-2,6-dione trifluoroacetate], half-maximal inhibition (IC50 (nM)) (IC50) was put at 197 nM. On to `CC#CCn1c(N2CCNCC2)nc2c1c(=O)n(C)c(=O)n2CC(=O)OC` [Example 398, Methyl[7-(2-butynyl)-1-methyl-2,6-dioxo-8-(piperazin-1-yl)-1,2,6,7-tetrahydropurin-3-yl]acetate trifluoroacetate], for which the IC50 (read-out: IC50) was found to be 237 nM.

`CC#CCn1c(N2CCNCC2)nc2c1c(=O)n(C)c(=O)n2CC1CCCO1` (stereo not shown) [Example 400, 7-(2-Butynyl)-3-(2-tetrahydrofuranyl)methyl-1-methyl-8-(piperazin-1-yl)-3,7-dihydropurine-2,6-dione trifluoroacetate]: the IC50 (read-out: IC50) worked out at 183 nM.

On to `CC#CCn1c(N2CCNCC2)nc2c1c(=O)n(C)c(=O)n2C(C(=O)OC)c1ccccc1` (stereo not shown) [Example 402, Methyl[7-(2-butynyl)-1-methyl-2,6-dioxo-8-(piperazin-1-yl)-1,2,6,7-tetrahydropurin-3-yl]phenylacetate trifluoroacetate], for which the IC50 (read-out: IC50) turned out to be 354 nM.

As for `CC#CCn1c(N2CCNCC2)nc2c1c(=O)n(C)c(=O)n2CCC` [Example 403, 7-(2-Butynyl)-3-propyl-1-methyl-8-(piperazin-1-yl)-3,7-dihydropurine-2,6-dione trifluoroacetate], half-maximal inhibition (IC50 (nM)) (IC50) required 266 nM. As to `CC#CCn1c(N2CCNCC2)nc2c1c(=O)n(C)c(=O)n2CC(=O)c1ccccc1` [Example 404, 7-(2-Butynyl)-3-(2-oxo-2-phenethyl)-1-methyl-8-(piperazin-1-yl)-3,7-dihydropurine-2,6-dione trifluoroacetate], the IC50 (read-out: IC50) amounted to 276 nM. Still for that read-out and setting: the figure for `CC#CCn1c(N2CCNCC2)nc2c1c(=O)n(C)c(=O)n2C(C)C(=O)OCC` (stereo not shown) [Example 405, Ethyl 2-[7-(2-butynyl)-1-methyl-2,6-dioxo-8-(piperazin-1-yl)-1,2,6,7-tetrahydropurin-3-yl]propionate trifluoroacetate] is 359 nM; for `CC#CCn1c(N2CCNCC2)nc2c1c(=O)n(C)c(=O)n2CCOCC` [Example 407, 7-(2-Butynyl)-3-(2-ethoxyethyl)-1-methyl-8-(piperazin-1-yl)-3,7-dihydropurine-2,6-dione trifluoroacetate] it is 275 nM; for `CC#CCn1c(N2CCNCC2)nc2c1c(=O)n(C)c(=O)n2C(C)C` [Example 408, 7-(2-Butynyl)-3-isopropyl-1-methyl-8-(piperazin-1-yl)-3,7-dihydropurine-2,6-dione trifluoroacetate] it is 340 nM. Still for that read-out and setting: then `CC#CCn1c(N2CCNCC2)nc2c1c(=O)n(C)c(=O)n2CC(=O)C(C)(C)C` [Example 409, 7-(2-Butynyl)-3-(3,3-dimethyl-2-oxobutyl)-1-methyl-8-(piperazin-1-yl)-3,7-dihydropurine-2,6-dione trifluoroacetate], with 222 nM; and `CC#CCn1c(N2CCNCC2)nc2c1c(=O)n(C)c(=O)n2C1CCNC1=O` (stereo not shown) [Example 410, 7-(2-Butynyl)-1-methyl-3-(2-oxopyrrolidin-3-yl)-8-(piperazin-1-yl)-3,7-dihydropurine-2,6-dione hydrochloride], with 64.9 nM; and `CC#CCn1c(N2CCNCC2)nc2c1c(=O)n(CC(=O)c1ccccc1)c(=O)n2CCOCC` [Example 413, 7-(2-Butynyl)-3-(2-ethoxyethyl)-1-(2-oxo-2-phenylethyl-8-(piperazin-1-yl)-3,7-dihydropurine-2,6-dione trifluoroacetate], with 1.95 nM. `CC#CCn1c(N2CCNCC2)nc2c1c(=O)n(CC(=O)c1ccccc1)c(=O)n2CC(=O)OC` [Example 415, Methyl[7-(2-butynyl)-2,6-dioxo-1-(2-oxo-2-phenylethyl)-8-(pipierazin-1-yl)-1,2,6,7-tetrahydropurin-3-yl]acetate trifluoroacetate]: the IC50 (read-out: IC50) amounted to 1.81 nM. `CC#CCn1c(N2CCNCC2)nc2c1c(=O)n(CCc1ccccc1)c(=O)n2CC(=O)OCC` [Example 416, Ethyl[7-(2-butynyl)-2,6-dioxo-1-(2-phenethyl)-8-(piperazin-1-yl)-1,2,6,7-tetrahydropurin-3-yl]acetate hydrochloride]: the midpoint of inhibition (IC50 (nM)), the IC50, lay at 4.02 nM.
